Test results published in ChEMBL document CHEMBL5331141.
Activity calls are given as the source filed them. The rule behind the calls is not given here.

Tested on: HEK293
Experiment: Effect on HEK293 cells lacking human mu opioid receptor assessed as inhibition of cAMP accumulation at 1 uM
Type: functional, cell-based

SMILES	Activity
C=C(C)[C@@H]1CCC(C)=C[C@H]1c1c(O)cc(CCCCC)cc1O	inactive
C=CCN1CC[C@]23c4c5ccc(O)c4O[C@H]2C(=O)CC[C@@]3(O)[C@H]1C5	inactive
C=C(C)[C@@H]1CCC(C)=C[C@H]1c1c(O)cc(CCC)cc1O	inactive
